Test results as given in US20250213571A1, “TYK2 INHIBITORS AND USES THEREOF” (Alumis Inc., priority 2022, published 2025).
pKd: −log10 of the molar value. Counter-ions that a name gives are not always drawn. Like-named read-outs stand apart in the source and are kept apart here.

Key:
[1] = 14-membered ring
JAK1 JH2 = JAK1 JH2 (Homo sapiens (Human), UniProt P23458); assay: JAK1 JH2 binding (Kd, Table 2); conditions: JH2 domain
[2] = biological target: human TYK2 (JH2domain-pseudokinase) (Homo sapiens (Human), UniProt P29597); assay: TYK2 JH2 domain binding assay (KINOMEscan)
Experimental: Binding constants for the compounds described herein against the JH2 domain were determined by the following protocol for a KINOMEscan® assay (DiscoveRx). A fusion protein of a partial length construct of human TYK2 (JH2domain-pseudokinase) (amino acids G556 to D888 based on reference sequence NP_003322.3) and the DNA binding domain of NFkB was expressed in transiently transfected HEK293 cells. From these HEK 293 cells, extracts were prepared in M-PER extraction buffer (Pierce) in the presence of Protease Inhibitor Cocktail Complete (Roche) and Phosphatase Inhibitor Cocktail Set II (Merck) per manufacturers' instructions. The TYK2 (JH2domain-pseudokinase) fusion protein was labeled with a chimeric double-stranded DNA tag containing the NFkB binding site fused to an amplicon for qPCR readout, which was added directly to the expression extract (the final concentration of DNA-tag in the binding reaction is 0.1 nM).
Streptavidin-coated magnetic beads (Dynal M280) were treated with a biotinylated small molecule ligand for 30 minutes at room temperature to generate affinity resins the binding assays. The liganded beads were blocked with excess biotin and washed with blocking buffer (SeaBlock (Pierce), 1% BSA, 0.05% Tween 20, 1 mM DTT) to remove unbound ligand and to reduce nonspecific binding.
The binding reaction was assembled by combining 16 μl of DNA-tagged kinase extract, 3.8 μl liganded affinity beads, and 0.18 μl test compound (PBS/0.05% Tween 20/10 mM DTT/0.1% BSA/2 μg/ml sonicated salmon sperm DNA)]. Extracts were used directly in binding assays without any enzyme purification steps at a ≥10,000-fold overall stock dilution (final DNA-tagged enzyme concentration <0.1 nM). Extracts were loaded with DNA-tag and diluted into the binding reaction in a two-step process. First extracts were diluted 1:100 in 1×binding buffer (PBS/0.05% Tween 20/10 mM DTT/0.1% BSA/2 […] sonicated salmon sperm DNA) containing 10 nM DNA-tag. This dilution was allowed to equilibrate at room temperature for 15 minutes and then subsequently diluted 1:100 in 1× binding buffer. Test compounds were prepared as 111× stocks in 100% DMSO. Kds were determined using an 11-point 3-fold compound dilution series with three DMSO control points. All compounds for Kd measurements were distributed by acoustic transfer (non-contact dispensing) in 100% DMSO. The compounds were then diluted directly into the assays such that the final concentration of DMSO was 0.9%. All reactions were performed in polypropylene 384-well plates. Each was a final volume of 0.02 mL. Assays were incubated with shaking for 1 hour at room temperature. Then the beads were pelleted and washed with wash buffer (1×PBS, 0.05% Tween 20) to remove displaced kinase and test compound. The washed based were resuspended in elution buffer (1 λPBS, 0.05% Tween […] non-biotinylated affinity ligand) and incubated at room temperature with shaking for 30 minutes. The kinase concentration in the eluates was measured by qPCR. qPCR reactions were assembled by adding 2.5 μL of kinase eluate to 7.5 μL of qPCR master mix containing […] amplicon primers and 0.15 μM amplicon probe. The qPCR protocol consisted of a 10 minute hot start at 95° C., followed by 35 cycles of 95° C. for 15 seconds, 60° C. for 1 minute.
Test compounds were prepared as 111× stocks in 100% DMSO. Kds were determined using an 11-point 3-fold compound dilution series with three DMSO control points. All compounds for Kd measurements were distributed by acoustic transfer (non-contact dispensing) in 100% DMSO. The compounds were then diluted directly into the assays such that the final concentration of DMSO was 0.9%. The Kds were determined using a compound top concentration of 30,000 nM. Kd measurements were performed in duplicate.
Binding constants (Kds) were calculated with a standard dose-response curve using the Hill equation: […]
The Hill Slope was set to −1. […]

TYK2 JH1 = TYK2 JH1 (Homo sapiens (Human), UniProt P29597); assay: TYK2 JH1 binding (Kd, Table 2); conditions: JH1 domain
TYK2 JH1, sequence (P29597 897-1176): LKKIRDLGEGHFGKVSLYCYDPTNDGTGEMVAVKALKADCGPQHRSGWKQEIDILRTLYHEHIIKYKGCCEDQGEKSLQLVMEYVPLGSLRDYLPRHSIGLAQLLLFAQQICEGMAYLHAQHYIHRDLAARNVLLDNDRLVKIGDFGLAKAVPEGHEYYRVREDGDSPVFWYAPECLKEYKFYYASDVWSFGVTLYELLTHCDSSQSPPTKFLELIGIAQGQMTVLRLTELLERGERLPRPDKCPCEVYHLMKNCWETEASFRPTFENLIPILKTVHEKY

human TYK2 (JH2domain-pseudokinase), sequence (P29597 556-888): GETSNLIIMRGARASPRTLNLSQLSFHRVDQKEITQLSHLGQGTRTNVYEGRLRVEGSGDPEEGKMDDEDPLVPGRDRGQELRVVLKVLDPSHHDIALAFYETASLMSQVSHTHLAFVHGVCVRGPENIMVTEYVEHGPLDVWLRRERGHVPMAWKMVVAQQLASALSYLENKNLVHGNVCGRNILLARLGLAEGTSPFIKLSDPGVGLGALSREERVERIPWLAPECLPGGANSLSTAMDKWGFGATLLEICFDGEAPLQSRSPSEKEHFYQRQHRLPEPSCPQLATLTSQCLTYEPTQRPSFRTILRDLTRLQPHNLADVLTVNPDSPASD
JAK1 JH2, sequence (P23458 583-855): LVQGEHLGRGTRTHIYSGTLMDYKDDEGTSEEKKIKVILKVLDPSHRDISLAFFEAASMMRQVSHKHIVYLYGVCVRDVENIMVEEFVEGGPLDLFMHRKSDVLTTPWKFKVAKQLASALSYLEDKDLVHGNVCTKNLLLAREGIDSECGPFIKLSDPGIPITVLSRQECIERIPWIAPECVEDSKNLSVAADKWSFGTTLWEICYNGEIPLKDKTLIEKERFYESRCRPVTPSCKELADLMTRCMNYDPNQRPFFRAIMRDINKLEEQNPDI

## tert-Butyl ((7R,E)-7-(hydroxymethyl)-3^1-methyl-9-oxo-3^1H-5-oxa-2,8-diaza-1(6,3),3(4,6)-diimidazo[1,2-b]pyridazinacyclononaphane-1^8-yl)(methyl)carbamate
[1]; cn_pd bond, Pd2(dba)3/BINAP/Cs2CO3, dioxane, 10.0 mM
  ring closure, isolated yield: 25%

## (14R)-19-[(4-methoxyphenyl)methyl]-21-([(4-methoxyphenyl)methyl](methyl)amino-7,14-dimethyl-12-oxa-2,5,6,7,15,18,19,22,23-nonaazapentacyclo[15.5.2.1^(3,10.0^(4,8.0^(20,24]pentacosa-1(23),3(25),4(8),5,9,17,20(24),21-octaen-16-one
[1]; cn_pd bond, Pd2(dba)3/Xantphos/Cs2CO3, 1,4-dioxane, 36.5 mM, 100.0 °C
  ring closure, isolated yield: 74%

## tert-butyl N-methyl-N-[(14R)-14-methyl-16-oxo-12-oxa-2,7,8,15,19,23,24-heptaazapentacyclo[15.5.2.1^(3,10.0^(5,9.0^(20,24]pentacosa-1(23),3(25),4,6,9,17,19,21-octaen-21-yl]carbamate
[1]; cn_pd bond, Pd2(dba)3/BINAP/Cs2CO3, 1,4-dioxane, 23.0 mM, 80.0 °C
  ring closure, isolated yield: 71%

## tert-butyl N-methyl-N-[(12R)-12-methyl-10-oxo-14-oxa-2,4,5,7,11,22-hexaazapentacyclo[13.6.2.2^(3,6.0^(5,9.0^(19,23]pentacosa-1(21),3,6,8,15,17,19,22,24-nonaen-24-yl]carbamate
[1]; cn_pd bond, Pd2(dba)3/Xantphos/Cs2CO3, 1,4-dioxane, 95.0 mM, 80.0 °C
  ring closure, isolated yield: 86%

## tert-butyl N-methyl-N-[(12R)-12-methyl-10-oxo-2,4,5,7,11,14,18-heptaazapentacyclo[13.6.2.2^(3,6.0^(5,9.0^(19,23]pentacosa-1(21),3,6,8,15,17,19,22,24-nonaen-24-yl]carbamate
[1]; cn_pd bond, Pd2(dba)3/Xantphos/Cs2CO3, 1,4-dioxane, 85.0 mM, 90.0 °C
  ring closure, isolated yield: 62%

## C[C@@H]1COCc2cc(c3nnn(C)c3c2)Nc2cc(N(C)C(=O)OC(C)(C)C)c3ncc(n3n2)C(=O)N1
[1]; from C[C@H](COCc1cc(N)c2nnn(C)c2c1)NC(=O)c1cnc2c(N(C)C(=O)OC(C)(C)C)cc(Cl)nn12, cn_pd bond, Pd2(dba)3/BINAP/Cs2CO3, dioxane, 50.0 mM, 16.0 h
  ring closure, isolated yield: 50%

## tert-butyl N-methy 1-N-[(12R)-12-methyl-10-oxo-14-oxa-2,4,5,7,11,20-hexaazapentacyclo [13.6.2.2^{3,6}0.^{5,9}0.^{19,23}]pentacosa 1(21),3,6,8,15,17,19,22,24-nonaen-24-yl]carbamate
[1]; cn_pd bond, Pd2(dba)3/Xantphos, 1,4-dioxane, 34.0 mM, 80.0 °C
  ring closure, isolated yield: 66%

## C[C@@H]1COCc2cc(cn3ccnc23)Nc2cc(N(C)C(=O)OC(C)(C)C)c3ncc(n3n2)C(=O)N1
[1]; from C[C@H](COCc1cc(N)cn2ccnc12)NC(=O)c1cnc2c(N(C)C(=O)OC(C)(C)C)cc(Cl)nn12, cn_pd bond, Pd2(dba)3/Xantphos/Cs2CO3, 1,4-dioxane, 80.0 °C
  ring closure, isolated yield: 34%

## CNc1cc2nn3c(cnc13)C(=O)N[C@H](C)COCc1cc(cc3nc[nH]c13)N2 [Compound 97, (14R)-14-methyl-21-(methylamino)-12-oxa-2,6,8,15,19,23,24-heptaazapentacyclo[15.5.2.1^(3,10.0^(5,9.0^(20,24]pentacosa-1(23),3(25),4,6,9,17,19,21-octaen-16-one hydrochloride]
JAK1 JH2
  pKd: 6.00 to 8.00
[2]
  pKd: > 8.00
TYK2 JH1
  pKd: 5.00 to 6.00

## CNc1cc2nc3c(cnn13)C(=O)N[C@H](C)[C@@H](C)OCc1cc(c3c(c1)nnn3C)N2 [Compound 94]
JAK1 JH2
  pKd: 4.52 to 5.00
[2]
  pKd: > 8.00
TYK2 JH1
  pKd: ≤ 4.52

## C[C@@H]1COCc2cc(c3nnn(C)c3c2)Nc2cc(N(C)C(=O)OC(C)(C)C)n3ncc(c3n2)C(=O)O1
[1]; from C[C@@H](O)COCc1cc(Nc2cc(N(C)C(=O)OC(C)(C)C)n3ncc(C(=O)O)c3n2)c2nnn(C)c2c1, ester bond, DIAD/PPh3, DCM, 20.0 mM, 16.0 h
  ring closure, isolated yield: 52%

## CNc1cc2nc3c(cnn13)C(=O)NC(C(F)(F)F)COCc1cc(c3c(c1)nnn3C)N2 (stereo not drawn) [Compound 95]
JAK1 JH2
  pKd: ≤ 4.52
[2]
  pKd: > 8.00
TYK2 JH1
  pKd: ≤ 4.52

## CNc1cc2nn3c(cnc13)C(=O)N[C@H](C)C(C)OCc1cc(c3nnn(C)c3c1)N2 (stereo partly drawn) [Compound 90]
JAK1 JH2
  pKd: 6.00 to 8.00
[2]
  pKd: > 8.00
TYK2 JH1
  pKd: ≤ 4.52

## CNc1cc2nc3c(cnn13)C(=O)N[C@H](C)COCc1cc(c3ncn(C)c3c1)N2 [Compound 11, (R,1^3E,1^4E)-3′,7-Dimethyl-17-(methylamino)-3^1H-5-oxa-2,8-diaza-1(5,3)-pyrazolo[1,5-a]pyrimidina-3(4,6)-benzo[d]imidazolacyclononaphan-9-one]
JAK1 JH2
  pKd: 5.00 to 6.00
[2]
  pKd: > 8.00
TYK2 JH1
  pKd: 4.52 to 5.00

## C[C@@H]1COc2ccnc3cnc(cc23)Nc2cc(N(C)C(=O)OC(C)(C)C)c3ncc(n3n2)C(=O)N1
[1]; from C[C@H](COc1ccnc2cnc(N)cc12)NC(=O)c1cnc2c(N(C)C(=O)OC(C)(C)C)cc(Cl)nn12, cn_pd bond, Pd2(dba)3/Xantphos/Cs2CO3, 1,4-dioxane, 57.0 mM, 80.0 °C, 16.0 h
  ring closure, isolated yield: 54%

## tert-butyl N-methyl-N-[(12R)-12-methyl-10-oxo-14-oxa-2,4,5,7,11,18-hexaazapentacyclo[13.6.2.2^(3,6.0^(5,9.0^(19,23]pentacosa-1(22),3,6,8,15,17,19(23),20,24-nonaen-24-yl]carbamate
[1]; cn_pd bond, Pd2(dba)3/Cs2CO3, 1,4-dioxane, 42.3 mM, 80.0 °C
  ring closure, isolated yield: 67%

## CNc1nc2cnc3cn2c1C(=O)N[C@H](C)COCc1cc(c2nnn(C)c2c1)N3
[1]; from CNc1nc2cnc(Br)cn2c1C(=O)N[C@H](C)COCc1cc(N)c2nnn(C)c2c1, cn_pd bond, RuPhos Pd G3/Cs2CO3, dioxane, 62.0 mM, 100.0 °C, 16.0 h
  ring closure, isolated yield: 10%

## CNc1cc2nn3c(cnc13)C(=O)N[C@H](C)COCc1cc(c3ncn(C)c3c1)N2 [Compound 10, (7R,E)-3′,7-Dimethyl-1^8-(methylamino)-3^1H-5-oxa-2,8-diaza-1(6,3)-imidazo[1,2-b]pyrida-zina-3(4,6)-benzo[d]imidazolacyclononaphan-9-one]
JAK1 JH2
  pKd: 5.00 to 6.00
[2]
  pKd: > 8.00
TYK2 JH1
  pKd: 5.00 to 6.00

## CNc1cc2nn3c(cnc13)C(=O)N[C@H](C)COCc1cc(c3c(cnn3C)c1)N2 [Compound 14, (7R,E)-3′,7-Dimethyl-1^8-(methylamino)-3^1H-5-oxa-2,8-diaza-1(6,3)-imidazo[1,2-b]pyridazina-3(7,5)-indazolacyclononaphan-9-one]
JAK1 JH2
  pKd: 4.52 to 5.00
[2]
  pKd: > 8.00
TYK2 JH1
  pKd: 4.52 to 5.00

## CNc1cc2nc3c(cnn13)C(=O)N[C@H](C)[C@H](C)OCc1cc(c3c(c1)nnn3C)N2 [Compound 93]
JAK1 JH2
  pKd: 5.00 to 6.00
[2]
  pKd: > 8.00
TYK2 JH1
  pKd: ≤ 4.52
